Reference: patent publication US7951824B2, “4-aryl-pyridine-2-carboxyamide derivatives” (Hoffman-La Roche Inc., priority 2006, dated 2011)

These molecules were tested against T1, human mGlu 5a receptor (Homo sapiens, UniProt P41594) (assay: [3H]MPEP competition binding on membranes of EBNA cells transfected with human mGlu 5a receptor). Conditions: competition with [3H]MPEP (2 nM), 1 h at 4° C., EBNA cell membranes.
T1 construct: expressed in transfected cells; host or cells: EBNA cells (transient transfection), membrane homogenates
Protocol: The pharmacological activity of the compounds was tested using the following method: For binding experiments, cDNA encoding human mGlu 5a receptor was transiently transfected into EBNA cells using a procedure described by Schlaeger and Christensen [Cytotechnology 15:1-13 (1998)]. Cell membrane homogenates were stored at −80° C. until the day of assay where upon they were thawed and resuspended and polytronised in 15 mM Tris-HCl, 120 mM NaCl, 100 mM KCl, 25 mM CaCl2, 25 mM MgCl2 binding buffer at pH 7.4 to a final assay concentration of 20 μg protein/well.
Saturation isotherms were determined by addition of twelve [^3H] MPEP concentrations (0.04-100 nM) to these membranes (in a total volume of 200 μd) for 1 h at 4° C. Competition experiments were performed with a fixed concentration of [^3H]MPEP (2 nM) and IC50 values of test compounds evaluated using 11 concentrations (0.3-10,000 nM). Incubations were performed for 1 h at 4° C.
At the end of the incubation, membranes were filtered onto unifilter (96-well white microplate with bonded GF/C filter preincubated 1 h in 0.1% PEI in wash buffer, Packard Bio-Science, Meriden, Conn.) with a Filtermate 96 harvester (Packard BioScience) and washed 3 times with cold 50 mM Tris-HCl, pH 7.4 buffer. Nonspecific binding was measured in the presence of 10 μM MPEP. The radioactivity on the filter was counted (3 min) on a Packard Top-count microplate scintillation counter with quenching correction after addition of 45 μl of microscint 40 (Canberra Packard S. A., Zürich, Switzerland) and shaking for 20 min.
For binding experiments the Ki values of the compounds tested are given. The Ki value is defined by the following formula: KiIC50/[1+L/Kd] in which the IC50 values are those concentrations of the compounds tested which cause 50% inhibition of the competing radioligand ([^3H]MPEP). L is the concentration of radioligand used in the binding experiment and the Kd value of the radioligand is empirically determined for each batch of membranes prepared.

T1 sequence (P41594 21-1180 isoform P41594-2 limits assumed): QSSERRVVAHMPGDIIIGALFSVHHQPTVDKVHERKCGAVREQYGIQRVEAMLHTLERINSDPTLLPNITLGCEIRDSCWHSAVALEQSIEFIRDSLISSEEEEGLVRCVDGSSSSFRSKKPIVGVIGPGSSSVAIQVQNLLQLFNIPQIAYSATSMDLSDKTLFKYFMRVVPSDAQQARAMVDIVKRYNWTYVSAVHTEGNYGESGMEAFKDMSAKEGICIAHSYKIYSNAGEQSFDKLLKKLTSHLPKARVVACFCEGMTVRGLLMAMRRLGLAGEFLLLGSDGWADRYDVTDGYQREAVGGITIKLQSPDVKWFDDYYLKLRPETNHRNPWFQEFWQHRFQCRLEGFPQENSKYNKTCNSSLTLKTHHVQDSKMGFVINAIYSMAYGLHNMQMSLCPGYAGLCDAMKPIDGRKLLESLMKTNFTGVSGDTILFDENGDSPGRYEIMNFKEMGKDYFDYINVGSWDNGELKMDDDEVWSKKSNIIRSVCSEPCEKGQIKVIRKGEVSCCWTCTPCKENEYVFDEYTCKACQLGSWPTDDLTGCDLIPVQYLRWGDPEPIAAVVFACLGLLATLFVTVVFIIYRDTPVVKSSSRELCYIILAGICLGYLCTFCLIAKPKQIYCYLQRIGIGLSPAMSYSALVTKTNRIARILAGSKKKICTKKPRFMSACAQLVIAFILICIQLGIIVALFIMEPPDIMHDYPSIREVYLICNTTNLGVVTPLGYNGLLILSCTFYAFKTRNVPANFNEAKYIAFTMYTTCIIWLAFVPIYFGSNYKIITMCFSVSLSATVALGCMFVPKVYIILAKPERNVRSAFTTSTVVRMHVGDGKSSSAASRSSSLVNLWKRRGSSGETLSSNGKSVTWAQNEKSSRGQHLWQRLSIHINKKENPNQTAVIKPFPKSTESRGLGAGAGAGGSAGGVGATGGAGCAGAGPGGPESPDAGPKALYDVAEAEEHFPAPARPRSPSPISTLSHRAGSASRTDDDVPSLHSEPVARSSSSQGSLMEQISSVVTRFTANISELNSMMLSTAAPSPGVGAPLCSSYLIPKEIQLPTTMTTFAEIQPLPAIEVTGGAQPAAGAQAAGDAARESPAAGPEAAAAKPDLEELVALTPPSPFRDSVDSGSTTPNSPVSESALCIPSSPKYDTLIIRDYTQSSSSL

Row | SMILES | Ki
1 | Cc1cc(-c2cc(C)nc(C(=O)Nc3nc(C#N)cs3)c2)ccn1 [Example 185, 6,2′-Dimethyl-[4,4′]bipyridinyl-2-carboxylic acid (4-cyano-thiazol-2-yl)-amide] | 290 nM
2 | Cc1cc(-c2ccc(F)cc2)cc(C(=O)Nc2cccc(Cl)c2)n1 [Example 26, 4-(4-Fluoro-phenyl)-6-methyl-pyridine-2-carboxylic acid (3-chloro-phenyl)-amide] | 287 nM
3 | Cc1nc(C(=O)Nc2ccnc(Cl)c2)cc(-c2cc(F)cc(F)c2)n1 [Example 36, 6-(3,5-Difluoro-phenyl)-2-methyl-pyrimidine-4-carboxylic acid (2-chloro-pyridin-4-yl)-amide] | 113 nM

Results, then the molecule that gave them:

Row | Ki | SMILES
4 | 81 nM | Cc1cc(-c2cc(F)cc(F)c2)cc(C(=O)Nc2ncc(F)s2)n1 [Example 200, 4-(3,5-Difluoro-phenyl)-6-methyl-pyridine-2-carboxylic acid (5-fluoro-thiazol-2-yl)-amide]
5 | 37 nM | Cc1cc(-c2cncc(F)c2)cc(C(=O)Nc2ccnc(Cl)c2)n1 [Example 67, 5-Fluoro-6′-methyl-[3,4′]bipyridinyl-2′-carboxylic acid (2-chloro-pyridin-4-yl)-amide]
6 | 33 nM | Cc1cc(-c2cncc(F)c2)cc(C(=O)Nc2ccc(Cl)cn2)n1 [Example 173, 5-Fluoro-6′-methyl-[3,4′]bipyridinyl-2′-carboxylic acid (5-chloro-pyridin-2-yl)-amide]

Same assay, conditions: competition with [3H]MPEP (2 nM), 1 h at 4° C., EBNA cell membranes, head prints no unit

Row | Ki | SMILES
7 | 4 nM | Cc1cc(-c2ccccc2Cl)cc(C(=O)Nc2nc(C)cs2)n1 [Example 14, 4-(2-Chloro-phenyl)-6-methyl-pyridine-2-carboxylic acid (4-methyl-thiazol-2-yl)-amide]
